Assays:
LPS-challenged mice [1] = experiment: EBA extravasation assay (lung vascular permeability) after LPS challenge; format: in vivo, mouse; settings: for vascular repair (EBA assay): 96h post-LPS; for vascular repair (EBA flux): 72h post-LPS
Protocol: (§1) To induce endotoxemia, mice received a single dose of LPS (0.25-2.5 mg/kg BW, Escherichia coli 055:B5, Santa Cruz, St. Dallas, Tex.) by i.p. injection. The LPS dose was dependent on the aging of the mice (3-9 mo old, 2.5 mg/kg; 19-21 mo. old, 1.0 mg/kg; 25 mo. old, 0.25 mg/kg). All mice were anesthetized with ketamine/xylazine (100/5 mg/kg BW, i.p.) prior to tissue collection. For the survival study, mice were treated with a single dose of LPS (1.5 mg/kg, i.p.) and monitored for 7 days.
Vascular permeability assessment. The Evans blue dye-conjugated albumin (EBA) extravasation assay was performed as previously described (26, 34). Briefly, mice were retro-orbitally injected with EBA at a dose of 20 mg/kg BW at 30 minutes prior to tissue collection. Lungs were perfused free of blood with PBS, blotted dry and weighed. Next, lung tissues were homogenized in 1 ml PBS and incubated with 2 volumes of formamide at 60° C. for 18 hours. The homogenates were then centrifuged at 10,000×g for 30 minutes. The optical density of the supernatant was determined at 620 nm and 740 nm. The extravasated EBA in lung homogenate was presented as μg of Evans blue dye per g lung tissue.

LPS-challenged mice [2] = experiment: Lung myeloperoxidase (MPO) activity after LPS challenge; format: in vivo, mouse
Protocol: as §1
Myeloperoxidase assay. Following perfusion free of blood, lung tissues were collected and homogenized in 50 mmol/L phosphate buffer. Homogenates were centrifuged at 15,000×g for 20 minutes at 4° C. The pellets were resuspended in phosphate buffer containing 0.5% hexadecyl trimethylammonium bromide and subjected to a cycle of freezing and thawing. Subsequently, the pellets were homogenized and the homogenates were centrifuged again. Absorbance was measured at 460 nm every 15 secs for 3 minutes and data expressed as ΔOD460/min/g lung tissue (26, 34).

FoxM1 = experiment: Quantitative RT-PCR of FoxM1 expression in lung after LPS challenge; format: in vivo, mouse
Protocol: (§2) Molecular analysis. Total RNA was isolated using an RNeasy Mini kit including DNase I digestion (Qiagen, Valencia, Calif.). Following reverse transcription, quantitative RT-PCR analysis was performed using a sequence detection system (ABI ViiA 7 system; Life Technologies, Grand Island, N.Y.). The following primers sets were used for analysis: mouse FoxM1 primers, 5′-[…]-3′ (SEQ ID NO: 1) and 5′-[…]-3′ (SEQ ID NO: 2); mouse cyclophilin primers, 5′-[…]-3′ (SEQ ID NO: 3) and 5′-[…]-3′ (SEQ ID NO: 4). Primers for mouse Cdc25c, Ccna2, Ccnb1, Tnf, Il6, Nos2, and Icam1 were purchased from Qiagen. The mouse gene expression was normalized to cyclophilin.

Cdc25c, Ccna2, and Ccnb1 = experiment: Quantitative RT-PCR of FoxM1 target genes essential for cell cycle progression in lung; format: in vivo, mouse; settings: aged mice, treated at 24 and 48h post-LPS
Protocol: as §2

pulmonary vascular ECs = experiment: In vivo BrdU labeling of lung endothelial cell proliferation; set-up: species or system mouse; settings: aged mice, treated at 24 and 48h post-LPS
Protocol: Cell proliferation. At 8 h prior to tissue collection, BrdU (Sigma-Aldrich, St Louis, Mo.) was injected i.p. into mice at 50 mg/kg BW. Mouse lung cryosections were stained overnight with anti-BrdU (1:3, BD Biosciences, San Jose, Calif.) and incubated with Alexa Fluo 488-conjugated secondary antibody (1:200, Life Technologies, Grand Island, N.Y.). Lung vascular ECs were immunostained with anti-vWF (1:300, Sigma-Aldrich, St Louis, Mo.) and anti-CD31 (1:100, BD Biosciences, San Jose, Calif.) antibodies at 4° C. then the sections were incubated with Alexa Fluor 594-conjugated secondary antibodies (1:200, Life Technologies, Grand Island, N.Y.). The nuclei were counterstained with DAPI (Life Technologies, Grand Island, N.Y.). Three consecutive cryosections from each mouse lung were examined, the average number of BrdU+ nuclei was used (24, 34).

LPS-challenged mice [3] = experiment: Survival after LPS challenge; format: in vivo, mouse; settings: LPS 1.5 mg/kg i.p., treated at 24 and 48h post-LPS
Protocol: To induce endotoxemia, mice received a single dose of LPS (0.25-2.5 mg/kg BW, Escherichia coli 055:B5, Santa Cruz, St. Dallas, Tex.) by i.p. injection. […] All mice were anesthetized with ketamine/xylazine (100/5 mg/kg BW, i.p.) prior to tissue collection. […]

young adult mice = settings: 1 mg/kg i.p., young adult mice (8-10 weeks old), previous study; cited from earlier work
TNF-α = experiment: Quantitative RT-PCR of TNF-α expression in lung after LPS challenge; format: in vivo, mouse; settings: aged mice (21 mo. old), DMOG at 12 or 24h post-LPS, 72h post-LPS
Protocol: as §2

IL-6 = experiment: Quantitative RT-PCR of IL-6 expression in lung after LPS challenge; format: in vivo, mouse
Protocol: as §2

pro-inflammatory genes = format: in vivo, mouse; settings: aged mice (21 mo. old), 25 mg/kg oral at 24h post-LPS (FIG. 13 legend)
Protocol: as §2

[4] = system: human lung microvascular ECs (HLMVECs); experiment: Apoptosis (TUNEL) in senescent HLMVECs treated with TNF-α/CHX; settings: senescent HLMVECs at passage 16
Source text: (§3) (D) Quantification of ROS production. (E) Representative micrographs of TUNEL staining (green) of human lung ECs.
(§4) To further understand the pathogenic role of aging-induced NOX2 in promoting inflammatory lung injury in aged mice, we cultured human lung microvascular ECs (HLMVECs) and passaged many times.

[5] = system: human lung microvascular ECs (HLMVECs); experiment: ROS production (DCF staining) in senescent HLMVECs treated with TNF-α/CHX; settings: senescent HLMVECs at passage 16, TNF-α and Cycloheximide (CHX) treatment
Source text: as §3, §4

HIF-response element = experiment: High-throughput screening of Prestwick library in stable cell line containing the HIF-response element; format: cell-based; settings: Prestwick Chemical Library of FDA-approved drugs (1280 compounds)
[6] = cited from earlier work
HDAC = settings: cited from earlier work
NADase = settings: cited from earlier work
p53 = settings: in response to DNA damaging agents; cited from earlier work
[7] = young adult mice (3-5 mo. old), LPS 2.5 mg/kg i.p., 0.25, 0.5, and 5 mg/kg i.p. at 4h post-LPS, 24h post-LPS
[8] = aged mice (21 mo. old), DMOG 8 mg/mouse i.p. at 12 or 24h post-LPS, 72h post-LPS
[9] = aged mice (21 mo. old), LPS 0.5 mg/kg i.p., 25 mg/kg oral at 24h post-LPS, 72h post-LPS
[10] = aged mice (21.5 mos. old), LPS 2 mg/kg i.p., 120 mg/kg oral at 2 h post-LPS, 24h post-LPS
[11] = aged WT mice (20 months), 7 mg/kg i.p. at 1 h prior to LPS, 72h post-LPS

Compound: Nc1ncn([C@H]2CC(O)[C@@H](CO)O2)c(=O)n1 (stereo in doubt) [Decitabine, 5-Aza-2′-deoxycytidine]
- vascular repair (EBA assay) (LPS-challenged mice [1]; aged mice (21-22 mos. old), 0.2 mg/kg i.p. at 24 h and 48h post-LPS): normalized vascular repair
- lung EBA flux (LPS-challenged mice [1]; [7]): no effect
- vascular repair (EBA assay) (LPS-challenged mice [1]; young adult mice (3 mos. old), 0.2 mg/kg i.p. at 24 and 48h post-LPS): didn't promote
- lung MPO activity (LPS-challenged mice [2]; aged mice (21-22 mos. old), 0.2 mg/kg i.p. at 24 h and 48h post-LPS, 96h post-LPS): returned to basal levels
- lung MPO activity (LPS-challenged mice [2]; [7]): no effect
- inflammation resolution (MPO assay) (LPS-challenged mice [2]; young adult mice (3 mos. old), 0.2 mg/kg i.p. at 24 and 48h post-LPS, 96h post-LPS): didn't promote
- FoxM1 expression (FoxM1; aged mice, treated at 24 and 48h post-LPS, 72h post-LPS, compared to vehicle-treated mice): markedly induced
- expression of FoxM1 target genes essential for cell cycle progression (Cdc25c, Ccna2, and Ccnb1): markedly induced
- pulmonary vascular EC proliferation (BrdU immunostaining) (pulmonary vascular ECs): drastically increased
- mice survived (LPS-challenged mice [3]; aged (20-22 mos. old) WT mice, monitored for 96h): 80%
- survival of aged Foxm1 KO mice (LPS-challenged mice [3]; aged Foxm1 EC-specific knockout mice): no protective effects
- effect on sepsis-induced inflammatory lung injury (young adult mice): no effects

Compound: COC(=O)CNC(=O)C(=O)OC [DMOG, dimethyoxalylglycine]
- MPO activity (LPS-challenged mice [2]; [8]): returned to basal levels
- increase of FoxM1 expression compared to either basal or non-treated mice (FoxM1; [8]): 3 fold
- expression of TNF-α (TNF-α): markedly reduced
- expression of IL-6 (IL-6; aged mice (21 mo. old), DMOG at 12 or 24h post-LPS, 72h post-LPS): markedly reduced

Compound: Cc1nc(C(=O)NCC(=O)O)c(O)c2ccc(Oc3ccccc3)cc12 [FG-4592]
- vascular repair (EBA flux) (LPS-challenged mice [1]; aged mice (21 mo. old), LPS 0.5 mg/kg i.p., 25 mg/kg oral at 24h post-LPS): normalized vascular repair
- MPO activity (LPS-challenged mice [2]; [9]): inhibited MPO activity
- FoxM1 expression (FoxM1; [9]): induced FoxM1 expression
- pro-inflammatory cytokine expression (pro-inflammatory genes): marked increase

Compound: CC(=O)N[C@@H](CS)C(=O)O [NAC, N-Acetylcysteine]
- MPO activity (LPS-challenged mice [2]; [10]): attenuated
- expression of the proinflammatory gene 116 (IL-6; [10]): reduced to a level similar to young adult mice
- TNF-α/CHX treatment-induced cell apoptosis [4]: markedly inhibited
- ROS generation [5]: inhibited

Compound: Cl.Nc1ccc(/N=N/c2ccccc2)c(N)n1 [Phenazopyridine]
- HIF activation in library screen (HIF-response element): activators
- vascular repair (EBA flux) (LPS-challenged mice [1]; aged mice (22 mo. old), LPS 1.5 mg/kg i.p., treated at 6h and 24h post-LPS): promote vascular repair

Compound: COCCCOc1ccnc(C[S+]([O-])c2nc3ccccc3[nH]2)c1C (centres unmarked) [Rabeprazole]
- HIF activation in library screen (HIF-response element): activators
- drug-induced vascular repair (EBA) in Foxm1 EC KO mice (LPS-challenged mice [1]; Foxm1 EC-specific knockout mice (3-5 mos. old), treated at 6h and 24h post-LPS, 52h post-LPS): inhibited
- drug-induced vascular repair (EBA) in Hif1a KO mice (LPS-challenged mice [1]; Hif1a EC-specific knockout mice (4 mos. old), treated at 6h and 24h post-LPS, 52h post-LPS): inhibited
- MPO activity (LPS-challenged mice [2]; aged mice (22 mo. old), LPS 1.5 mg/kg i.p., treated at 6h and 24h post-LPS, 72h post-LPS): returned to levels seen in basal mice
- increase of FoxM1 expression compared to either basal or LPS-treated mice (FoxM1; aged mice (22 mo. old), treated at 6h and 24h post-LPS, 72h post-LPS): 3-6 fold
- increase of FoxM1 expression compared to either basal or LPS-treated mice (FoxM1; young adult mice 3-5 mos. old, 18 mg/kg oral at 6h and 24h post-LPS, 56h post-LPS): 3 fold

Compound: Oc1ccc(/C=C/c2cc(O)cc(O)c2)cc1 [Resveratrol, trans-E-resveratrol]
- solubility [6]: poor solubility

Compound: NC(=O)C1CCCc2c1[nH]c1ccc(Cl)cc21 (centres unmarked) [Selisistat]
- lung MPO activity (LPS-challenged mice [2]; [11]): returned to basal levels
- FoxM1 expression (FoxM1; [11]): reactivated FoxM1 expression
- IC50 (HDAC): > 100 µM
- IC50 (NADase): > 100 µM
- p53 acetylation (p53): Enhances

Reference: patent publication US20230248706A1, “METHODS AND COMPOSITIONS FOR THE TREATMENT OF COVID-19 AND ASSOCIATED RESPIRATORY DISTRESS AND MULTI-ORGAN FAILURE, SEPSIS, ACUTE RESPIRATORY DISTRESS SYNDROME, AND CARDIOVASCULAR DISEASES” (priority 2020, published 2023)
